{"source": "patent US20140106380A1", "about": "“METHODS FOR IDENTIFYING INHIBITORS OF ABETA42 OLIGOMERS” (Merck Sharp & Dohme Crop., priority 2010, published 2014)", "assay_type_in_all_cases": "biochemical", "key": {"Aβ42 [1]": {"biological_target": "T1, Aβ42 (Homo sapiens, UniProt P05067)", "T1 construct": "Synthetic human Aβ1-42, purchased from American Peptide Company (Sunnyvale, Calif.); purchased American Peptide Company (Sunnyvale, Calif.); host or cells: chemically synthesised peptide", "T1 sequence (P05067 672-713 limits assumed)": "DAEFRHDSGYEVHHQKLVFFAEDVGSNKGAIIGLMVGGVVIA", "test": "Aβ42 CT AlphaLISA, inhibition of early oligomerization", "settings": "for Aβ42 CT immunoreactivity: Aβ42 1 nM, oligomerization at 4° C. overnight, different buffers, AlphaLISA", "description": "To test a compound's effect on inhibition of early oligomerization, SI, or a different testing compound, was mixed with the Aβ42 solution to make solutions with final concentrations of SI from 0.1 μM to 10 mM (0.1 μM, 1 μM, 10 μM, 100 μM, 1 mM, and 10 mM) and Aβ42 from 1 nM to 10 μM (1 nM, 10 nM, 100 nM, 1 μM and 10 μM). For example, a 10 μM Aβ42 solution contained, respectively, 0 μM, 0.1 μM, 1 μM, 10 μM, 100 μM, 1 mM and 10 mM SI. The same SI concentration series was applied to other concentrations of the Aβ42 solution indicated above. The mixtures were either incubated at 4° C. overnight or room temperature for two to three hours, before being used in the immunoreactive assay. Similarly, the presence of Aβ42 oligomers was detected using an Aβ42 C-terminal (CT) AlphaLISA assay (Eglen et al., 2008, Curr. Chem. Genomics, 1:2-10), a bead based proximity assay, based upon an oxygen channeling technology. The assay was carried out in a 384 well plate using an AlphaLISA® Human Amyloid β 1-[…]42 Research Immunoassay Kit (PerkinElmer, Waltham, Mass.) according to the manufacturer's directions. To make a 2.5× AlphaLISA acceptor bead and biotinylated anti-Aβ42 antibody mixture, 5.5 μl acceptor beads conjugated to anti-Aβ42 (12F4) and 5.5 μl biotin-Aβ42 antibody (binds to a epitope away from the CT of Aβ42) were added to 1,089 μl 1S AlphaLISA buffer and mixed by brief vortexing. To each well of a 384-well plate, 8 μl of the mix and 2 μl of an Aβ42 sample were added, followed by gentle tapping of the plate to mix the solutions. The plate was incubated at room temperature for one hour. The streptavidin donor bead solution was made in a dark room under safety light by mixing 20.1 μl of streptavidin donor beads with 1,279 μl 1× AlphaLISA buffer. The streptavidin donor bead solution, which binds to the biotinylated anti-Aβ42 antibody, was then added (10 μl/well) to the plate, sealed with an adhesive aluminum membrane, and incubated at room temperature for 30 minutes. Incubation brought the donor and acceptor beads into close proximity. An immunoreactive signal was generated when the donor bead released a singlet oxygen that, when excited at 680nm, was transferred to the acceptor bead, resulting in a light emission at 610 nm. The immunoreactive signals were read with a multilabel plate reader (EnVision®, PerkinElmer, Waltham, Mass.). The presence of Aβ42 oligomers was determined by a corresponding decrease in the C-terminal immunosignal. Values for the AlphaLISA assays were graphed and analyzed with Prism GraphPad software. Similar to signals generated with ELISA, the extent of Aβ42 oligomerization is inversely correlated with the magnitude of the CT immunosignal in AlphaLISA. Values for the ELISA assays were graphed and analyzed with Prism GraphPad software."}, "Aβ42 oligomers [2]": {"biological_target": "T2, Aβ42 oligomers (Homo sapiens, UniProt P05067)", "T2 construct": "Synthetic human Aβ1-42, purchased from American Peptide Company (Sunnyvale, Calif.); purchased American Peptide Company (Sunnyvale, Calif.); host or cells: chemically synthesised peptide", "T2 sequence (P05067 672-713 limits assumed)": "as above", "test": "Aβ42 NT immunoassay (6E10-6E10)", "settings": "P<0.01", "description": "The effect of an Aβ oligomer inhibitor on the metastability of Aβ42 oligomers prepared according Example 1 was evaluated as follows. A sample of the 1 mM Aβ42 DMSO stock was diluted to 10 μM or 100 μM in PBS or Neurobasal (e.g., 10 μl of 1 mM Aβ42 DMSO stock to make 1 ml 10 μM solution or 100 μl A(342 DMSO stock to make 1 ml 100 μM solution). After incubation at 37° C., the diluted oligomer solutions were mixed with scyllo-inositol (SI), a naturally occurring plant sugar alcohol found most abundantly in the coconut palm, to make a final concentrations of 1 μM or 10 μM Aβ42 containing 10 mM SI. The non-compound control oligomer sample contained no SI. The mixtures were incubated on ice for two to three hours to allow establishment of new equilibrium (metastability) among Aβ42 species. The stabilized mixtures were then utilized in the immunoreactive assays. An Aβ42 N-terminal (NT) oligomer ELISA was performed by adopting a 6E10-6E10 ELISA originally developed in house at Merck and also reported by others (Gandy et al., 2010, Ann. Neurol. 68: 220-230; Xia et al., 2009, Arch. Neurol. 66:190-199). […] The immunoreactive signals were read with a multilabel plate reader (EnVision®, PerkinElmer, Waltham, Mass.). The presence of Aβ42 oligomers was determined by a corresponding increase in the NT immunosignal. Values for the ELISA assays were graphed and analyzed with Prism GraphPad software. […]"}, "Aβ42 oligomers [3]": {"biological_target": "T2, Aβ42 oligomers", "test": "Aβ42 CT immunoassay, metastability of pre-formed Aβ42 oligomers", "settings": "addition to pre-formed Aβ42 oligomers, P<0.01 relative to samples without SI", "description": "The effect of an Aβ oligomer inhibitor on the metastability of Aβ42 oligomers prepared according Example 1 was evaluated as follows. […] Similarly, the presence of Aβ42 oligomers was detected using an Aβ42 C-terminal (CT) AlphaLISA assay (Eglen et al., 2008, Curr. Chem. Genomics, 1:2-10), a bead based proximity assay, based upon an oxygen channeling technology. […] The immunoreactive signals were read with a multilabel plate reader (EnVision®, PerkinElmer, Waltham, Mass.). The presence of Aβ42 oligomers was determined by a corresponding decrease in the C-terminal immunosignal. Values for the AlphaLISA assays were graphed and analyzed with Prism GraphPad software. […] Values for the ELISA assays were graphed and analyzed with Prism GraphPad software."}, "Aβ42 [4]": {"biological_target": "T1, Aβ42", "test": "Dynamic light scattering of Aβ42 oligomerization", "settings": "Aβ42 40 μM, 25 °C, in the presence of SI", "description": "Dynamic light scattering (DLS), also known as also known as quasi-elastic laser light scattering, offered another methodology to determine Aβ42 oligomerization by measuring the size distribution profile and shape of particles in solution. […] Sample preparation for the DLS assay was performed in a bio-safety cabinet. All solutions and reagents were pre-filtered with a 0.1 μm Whatman filter (Whatman, Piscataway, N.J.). Aβ42 (100 μM) made in PBS from the 1 mM DMSO stock (Example 1) was filtered with a 0.2 μm filter (Whatman, Piscataway, N.J.) and diluted to 50 μM to 10 μM with PBS or water. The samples were added to the DLS plate (50 μl/well) in the presence or absence of compounds and incubated at room temperature for seven to eight hours. The plate was briefly centrifuged (1 minute at 3000 rpm) and placed in the DynaPro DLS plate reader (Wyatt Technology, Dernbach, Germany), in which different parameters (normalized intensity, hydrodynamic radius, molecular weight, relative molecular mass, percent polydispersity, and sum of square) of the Aβ42 oligomer samples were measured, and analyzed with Dynamics 7.0.0 software (Wyatt Technology, Dernbach, Germany)."}}}
{"compound": "OC1C(O)C(O)C(O)C(O)C1O", "note": "(stereo not drawn) [chiro-inositol]", "values": [{"measurement": "Aβ42 CT immunoreactivity", "setting": "Aβ42 [1]", "result": "no effect"}]}
{"compound": "Ac-Leu-Pro(N-CH3)Phe-Phe-Asp-NH2 [Peptide IV]", "values": [{"measurement": "CT immunoreactivity", "setting": "Aβ42 [1]; FIG. 7A", "result": "dose-depended increase"}, {"measurement": "NT immunosignal", "setting": "Aβ42 oligomers [2]; FIG. 7B", "result": "significant decrease"}]}
{"compound": "O[C@H]1[C@H](O)[C@@H](O)[C@H](O)[C@@H](O)[C@H]1O", "note": "[myo-inositol]", "values": [{"measurement": "Aβ42 CT immunoreactivity", "setting": "Aβ42 [1]", "result": "no effect"}]}
{"compound": "O[C@H]1[C@H](O)[C@@H](O)[C@H](O)[C@@H](O)[C@@H]1O", "note": "[SI, scyllo-inositol]", "values": [{"measurement": "Aβ42 CT immunoreactivity", "setting": "Aβ42 [1]", "result": "dose dependent increase"}, {"measurement": "NT immunoreactivity", "setting": "Aβ42 oligomers [2]; addition to pre-formed Aβ42 oligomers", "result": "significant decrease"}, {"measurement": "CT immunoreactivity", "setting": "Aβ42 oligomers [3]", "result": "statistically significant increase"}, {"measurement": "% Intensity, Peak 1", "setting": "Aβ42 [4]", "result": 0.7, "unit": "%"}, {"measurement": "% Intensity, Peak 2", "setting": "Aβ42 [4]", "result": 96.88, "unit": "%"}, {"measurement": "% Mass, Peak 1", "setting": "Aβ42 [4]", "result": 76, "unit": "%"}, {"measurement": "% Mass, Peak 2", "setting": "Aβ42 [4]", "result": 38, "unit": "%"}, {"measurement": "MW-R, Peak 1", "setting": "Aβ42 [4]", "result": 11.6, "unit": "kDa"}, {"measurement": "MW-R, Peak 2", "setting": "Aβ42 [4]", "result": 527.1, "unit": "kDa"}, {"measurement": "Radius, Peak 1", "setting": "Aβ42 [4]", "result": 2.5, "unit": "nm"}, {"measurement": "Radius, Peak 2", "setting": "Aβ42 [4]", "result": "remained unchanged"}, {"measurement": "% Mass, Peak 1", "setting": "Aβ42 [4]; listed as Ab42/SI", "result": 72.93, "unit": "%"}, {"measurement": "% Mass, Peak 2", "setting": "Aβ42 [4]; listed as Ab42/SI", "result": 38.75, "unit": "%"}, {"measurement": "Radius, Peak 2", "setting": "Aβ42 [4]; listed as Ab42/SI", "result": 21.4, "unit": "nm"}]}
